A short description of data set [1]: Water solubility of solid halogenated hydantoins and amount of halogen dissolved in a saturated solution. The conditions noted are these: for Amount of halogen dissolved in saturated solution: saturated solution in water.
A short description of data set [2]: physchem. Conditions: water.

In brackets after ≈: the same amount, converted by molar mass.

Usually solubility stands for the concentration that dissolves in the medium under given conditions. Higher therefore signals much dissolved substance.

As to `CC1(C)C(=O)N(Cl)C(=O)N1Br` [Bromo-chlorodimethylhydantoin, bromochlorodimethylhydantoin], the “Amount of halogen dissolved in saturated solution” value in data set [1] worked out at 825 mg/L as Cl2. In addition, the Water solubility in data set [1] (solid halogenated hydantoin in water) is 0.15%.

As for `CC1(C)C(=O)N(Br)C(=O)N1Br` [Dibromodimethylhydantion, 1,3-dibromo-5,5-dimethylhydantoin], the “Amount of halogen dissolved in saturated solution” value in data set [1] was 542 mg/L as Cl2. This compound also showed a solubility in data set [1] (water) of 1100 µg/mL (≈ 3.85 mM).

`CC1(C)C(=O)N(Cl)C(=O)N1Cl` [Dichlorodimethylhydantoin, dichlorodimethylhydantoin] displayed a solubility in data set [2] of 2100 µg/mL (≈ 10.7 mM).

The values are drawn from patent US5422126A, “Halogen compositions for water treatment and method of preparation thereof” (priority 1993, dated 1995).
